IC50, AC50 and EC50 data for 21 compounds are collected here from ChEMBL document CHEMBL1201862, “PubChem BioAssay data set” (2004).

For test [1], the target named is DNA dC->dU-editing enzyme APOBEC-3A (Homo sapiens, UniProt P31941). Kind of test: Dose Response confirmation of small molecule APOBEC3A DNA Deaminase Inhibitors via a fluorescence-based single-stranded DNA deaminase assay. [Related pubchem assays (depositor defined):AID493011, AID493024]. The format is functional.
The target in test [2] is DNA dC->dU-editing enzyme APOBEC-3G (Homo sapiens, UniProt Q9HC16). In kind it is functional.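 Note: Dose-response counterscreen measuring inhibition of APOBEC3G DNA deaminase activity, run while confirming APOBEC3A inhibitors.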
Sequence of DNA dC->dU-editing enzyme APOBEC-3G (Q9HC16 whole entry): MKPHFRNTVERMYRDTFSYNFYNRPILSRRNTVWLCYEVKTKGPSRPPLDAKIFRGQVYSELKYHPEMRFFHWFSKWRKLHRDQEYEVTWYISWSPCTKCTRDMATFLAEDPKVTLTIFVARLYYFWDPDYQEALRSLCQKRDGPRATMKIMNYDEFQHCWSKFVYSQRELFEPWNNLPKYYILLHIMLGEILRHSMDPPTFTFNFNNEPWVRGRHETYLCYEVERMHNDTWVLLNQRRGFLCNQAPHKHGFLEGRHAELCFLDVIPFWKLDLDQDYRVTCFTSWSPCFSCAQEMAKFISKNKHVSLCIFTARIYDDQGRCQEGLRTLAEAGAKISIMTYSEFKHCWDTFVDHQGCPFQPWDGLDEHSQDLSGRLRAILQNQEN
For test [3], the target named is Glyceraldehyde-3-phosphate dehydrogenase (Homo sapiens, UniProt P04406).
Sequence of Glyceraldehyde-3-phosphate dehydrogenase (P04406 whole entry): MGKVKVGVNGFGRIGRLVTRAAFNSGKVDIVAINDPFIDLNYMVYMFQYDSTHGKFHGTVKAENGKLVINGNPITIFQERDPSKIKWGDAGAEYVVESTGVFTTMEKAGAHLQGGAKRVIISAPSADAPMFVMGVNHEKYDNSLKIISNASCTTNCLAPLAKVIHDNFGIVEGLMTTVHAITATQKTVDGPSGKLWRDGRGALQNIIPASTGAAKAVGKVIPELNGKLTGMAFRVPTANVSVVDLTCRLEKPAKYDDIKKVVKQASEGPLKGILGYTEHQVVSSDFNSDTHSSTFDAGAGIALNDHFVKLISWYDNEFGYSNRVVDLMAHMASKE
A further test concerns the target Large T antigen (Simian virus 40, UniProt P03070). In kind it is functional, Betapolyomavirus macacae.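 Note: Confirmatory-stage PubChem screen for compounds that inhibit SV40 T antigen.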
Test [4] addresses Induced myeloid leukemia cell differentiation protein Mcl-1 (Homo sapiens, UniProt Q07820). The format is functional.
Test [5] has as its target FAD-linked sulfhydryl oxidase ALR (Homo sapiens, UniProt P55789). The test is described as follows: ALR-catalysed DTT oxidation blockers – biochemical, H2O2 detection, luminescence, cherry-pick, dose response (AID 493248).
In test [6] the target is T1, Rac GTPase-activating protein 1 (Homo sapiens, UniProt Q9H0H5).
T1 sequence (Q9H0H5 whole entry): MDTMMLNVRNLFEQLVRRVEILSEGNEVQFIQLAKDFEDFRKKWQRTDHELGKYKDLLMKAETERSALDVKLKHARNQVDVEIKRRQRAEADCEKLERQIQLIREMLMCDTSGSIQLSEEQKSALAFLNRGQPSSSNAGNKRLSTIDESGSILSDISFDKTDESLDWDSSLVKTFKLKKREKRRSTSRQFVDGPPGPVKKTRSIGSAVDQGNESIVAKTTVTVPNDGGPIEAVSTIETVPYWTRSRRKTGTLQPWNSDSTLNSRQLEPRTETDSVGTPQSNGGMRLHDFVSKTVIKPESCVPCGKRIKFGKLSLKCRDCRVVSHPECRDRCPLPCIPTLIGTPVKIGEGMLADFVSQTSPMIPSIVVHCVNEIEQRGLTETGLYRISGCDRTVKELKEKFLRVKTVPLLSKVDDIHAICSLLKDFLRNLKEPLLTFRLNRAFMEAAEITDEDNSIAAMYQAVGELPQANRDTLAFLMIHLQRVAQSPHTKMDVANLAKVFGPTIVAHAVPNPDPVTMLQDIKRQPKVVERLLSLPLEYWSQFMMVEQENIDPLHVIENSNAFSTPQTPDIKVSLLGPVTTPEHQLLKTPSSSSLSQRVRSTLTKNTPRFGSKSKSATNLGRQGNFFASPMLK
The test is described as follows: blockers of MgcRacGAP-driven Rac1 GTP hydrolysis – biochemical, ADP Hunter fluorescence, primary and confirmatory, confirmation (AID 624330). The format is functional.

The target in the next test is T2, Leucine aminopeptidase (Plasmodium falciparum 3D7, UniProt Q8IL11).
T2 sequence (Q8IL11 whole entry): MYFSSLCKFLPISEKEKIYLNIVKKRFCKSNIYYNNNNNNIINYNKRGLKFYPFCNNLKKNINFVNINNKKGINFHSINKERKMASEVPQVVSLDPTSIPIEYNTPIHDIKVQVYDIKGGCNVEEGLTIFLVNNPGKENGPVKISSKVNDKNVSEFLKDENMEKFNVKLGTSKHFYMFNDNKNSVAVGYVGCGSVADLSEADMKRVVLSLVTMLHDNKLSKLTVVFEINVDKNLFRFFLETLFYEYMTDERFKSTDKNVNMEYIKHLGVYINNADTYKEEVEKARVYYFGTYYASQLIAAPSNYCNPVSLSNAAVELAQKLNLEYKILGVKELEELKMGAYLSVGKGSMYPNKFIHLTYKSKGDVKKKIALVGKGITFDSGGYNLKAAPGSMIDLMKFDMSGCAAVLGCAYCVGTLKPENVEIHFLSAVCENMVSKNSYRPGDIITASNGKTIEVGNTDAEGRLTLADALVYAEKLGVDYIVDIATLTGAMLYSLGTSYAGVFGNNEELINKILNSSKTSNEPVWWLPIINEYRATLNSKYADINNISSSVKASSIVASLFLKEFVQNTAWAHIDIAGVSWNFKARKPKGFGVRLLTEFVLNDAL
The test is described as follows: P. falciparum M17LAP inhibitors, primary screen, biochemical, fluorogenic H-Leu-NHMec substrate, 1536-well (AID 1619). In kind it is functional.

Test [7] concerns the target Glucose-6-phosphate 1-dehydrogenase (Homo sapiens, UniProt P11413). Kind of test: inhibition of Homo sapiens G6PD, dose series – biochemical, fluorescence, selectivity assay for P. falciparum G6PD inhibitor project, dose response (AID 504792). The format is functional.
Test [8] deals with T3, Heat shock factor protein 1 (Mus musculus, UniProt P38532).
T3 sequence (P38532 whole entry): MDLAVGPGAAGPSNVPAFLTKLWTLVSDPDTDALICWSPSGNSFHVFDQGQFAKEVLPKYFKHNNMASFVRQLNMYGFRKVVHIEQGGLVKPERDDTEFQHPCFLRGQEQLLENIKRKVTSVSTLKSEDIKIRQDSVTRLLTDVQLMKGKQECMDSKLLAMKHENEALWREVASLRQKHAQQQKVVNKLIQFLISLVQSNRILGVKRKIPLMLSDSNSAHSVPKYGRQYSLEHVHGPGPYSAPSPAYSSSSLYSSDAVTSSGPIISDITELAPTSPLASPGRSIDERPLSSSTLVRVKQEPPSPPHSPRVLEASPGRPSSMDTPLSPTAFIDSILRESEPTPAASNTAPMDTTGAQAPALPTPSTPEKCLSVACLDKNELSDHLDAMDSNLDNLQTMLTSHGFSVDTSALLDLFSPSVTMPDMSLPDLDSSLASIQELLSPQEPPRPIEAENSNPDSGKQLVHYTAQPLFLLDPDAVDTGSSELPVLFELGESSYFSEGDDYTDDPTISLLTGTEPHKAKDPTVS
Kind of test: enhancement of HSF1-driven luciferase signal – cell-based, NIH3T3, luminescence, dose retest, confirmation (AID 435004).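 Note: stress induced by proteasome inhibitor MG132 added 30 min after compound; luciferase reporter driven by HSF1 response element in NIH3T3 cells; actives raise luminescence as potentiators of the MG132 stress response.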 In kind it is functional.

For a further test, the system named is H9c2. The test is described as follows: cells. Conditions: Rattus norvegicus, H9c2, Myocardium. In kind it is functional, cell-based.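 Note: confirmatory concentration-response retest of ultra-high-throughput screening hits for modulation of myocardial damage; cell death induced by hydrogen peroxide oxidative stress; compound pretreatment for 60 min then peroxide exposure for 2 h; potency is for protecting the cells against peroxide damage rather than for killing them.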
Test [9] is described as follows: growth inhibition of yeast DHODH-expressing 3D7 parasites – SYBR Green, dry powder samples, dose response (AID 1159570).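 Note: parasite growth measured after 72 hours of compound exposure.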 In kind it is functional, cell-based.
Test [10] is described as follows: P. falciparum Dd2 growth inhibitors, dose response, SYBR Green, cherry-picked samples (AID 1159567). In kind it is functional, cell-based.
A short description of test [11]: Dd2 malaria parasite growth inhibition potency – SYBR Green, dry powder samples, dose response (AID 1159566).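 Note: potency for growth inhibition with lower SYBR green DNA signal.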 The format is functional, cell-based.
A short description of test [12]: growth inhibition of PfATP4-mutant resistant parasites – NITD609-resistant line, SYBR Green, dry powder, dose response (AID 1159571).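 Note: parasites synchronized at ring stage by sorbitol before testing.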 The format is functional, cell-based.
Another test addresses Cytochrome P450 2D6 (Homo sapiens, UniProt P10635).
Test [13] concerns the target T4, Carboxy-terminal domain RNA polymerase II polypeptide A small phosphatase 1 (Homo sapiens, UniProt Q9GZU7).
T4 sequence (Q9GZU7 whole entry): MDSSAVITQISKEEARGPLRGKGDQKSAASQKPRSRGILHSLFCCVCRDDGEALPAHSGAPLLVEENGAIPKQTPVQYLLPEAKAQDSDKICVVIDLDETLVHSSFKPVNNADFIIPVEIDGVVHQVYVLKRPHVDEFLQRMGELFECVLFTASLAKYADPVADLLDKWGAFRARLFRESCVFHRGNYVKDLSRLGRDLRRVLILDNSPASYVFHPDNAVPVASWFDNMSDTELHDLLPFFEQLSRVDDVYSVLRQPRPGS
The test is described as follows: CTDSP1 inhibitors, concentration-response, biochemical, absorbance readout, ultra-high-throughput screen actives (AID 540297). The format is functional.

Activity calls are given as the source filed them. Bounds are passed on as bounds.

Sequence of Large T antigen (P03070 whole entry): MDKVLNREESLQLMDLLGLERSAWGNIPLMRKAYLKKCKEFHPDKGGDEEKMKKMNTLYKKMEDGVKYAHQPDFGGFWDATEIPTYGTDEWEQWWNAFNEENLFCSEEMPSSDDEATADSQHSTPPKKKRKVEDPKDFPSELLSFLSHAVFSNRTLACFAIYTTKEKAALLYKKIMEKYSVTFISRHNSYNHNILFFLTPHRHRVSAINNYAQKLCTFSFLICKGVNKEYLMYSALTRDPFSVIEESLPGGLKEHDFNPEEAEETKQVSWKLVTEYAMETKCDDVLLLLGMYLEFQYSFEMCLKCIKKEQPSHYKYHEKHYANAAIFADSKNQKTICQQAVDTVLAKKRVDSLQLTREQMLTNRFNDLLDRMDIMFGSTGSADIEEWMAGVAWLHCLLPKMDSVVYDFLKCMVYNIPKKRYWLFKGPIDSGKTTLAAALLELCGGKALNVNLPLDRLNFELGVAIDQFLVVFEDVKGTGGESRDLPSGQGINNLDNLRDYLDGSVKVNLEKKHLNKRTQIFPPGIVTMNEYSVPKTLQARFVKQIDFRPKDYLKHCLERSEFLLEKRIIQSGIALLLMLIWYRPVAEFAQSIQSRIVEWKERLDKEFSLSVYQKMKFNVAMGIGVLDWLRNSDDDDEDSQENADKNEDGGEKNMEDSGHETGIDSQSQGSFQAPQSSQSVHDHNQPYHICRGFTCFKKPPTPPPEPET
Sequence of DNA dC->dU-editing enzyme APOBEC-3A (P31941 whole entry): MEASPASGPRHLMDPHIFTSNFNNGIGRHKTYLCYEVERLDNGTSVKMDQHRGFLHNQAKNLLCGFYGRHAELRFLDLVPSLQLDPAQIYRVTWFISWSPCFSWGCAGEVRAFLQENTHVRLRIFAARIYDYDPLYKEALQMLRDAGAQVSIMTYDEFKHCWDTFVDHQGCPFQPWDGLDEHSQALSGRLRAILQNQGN
Sequence of FAD-linked sulfhydryl oxidase ALR (P55789 whole entry): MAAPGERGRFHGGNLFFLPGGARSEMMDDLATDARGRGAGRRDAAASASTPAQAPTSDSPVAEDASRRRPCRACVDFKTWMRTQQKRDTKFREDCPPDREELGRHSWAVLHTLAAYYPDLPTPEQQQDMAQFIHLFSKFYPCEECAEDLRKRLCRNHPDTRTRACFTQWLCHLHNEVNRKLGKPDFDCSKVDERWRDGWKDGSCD
Sequence of Cytochrome P450 2D6 (P10635 whole entry, the tested form may be a part): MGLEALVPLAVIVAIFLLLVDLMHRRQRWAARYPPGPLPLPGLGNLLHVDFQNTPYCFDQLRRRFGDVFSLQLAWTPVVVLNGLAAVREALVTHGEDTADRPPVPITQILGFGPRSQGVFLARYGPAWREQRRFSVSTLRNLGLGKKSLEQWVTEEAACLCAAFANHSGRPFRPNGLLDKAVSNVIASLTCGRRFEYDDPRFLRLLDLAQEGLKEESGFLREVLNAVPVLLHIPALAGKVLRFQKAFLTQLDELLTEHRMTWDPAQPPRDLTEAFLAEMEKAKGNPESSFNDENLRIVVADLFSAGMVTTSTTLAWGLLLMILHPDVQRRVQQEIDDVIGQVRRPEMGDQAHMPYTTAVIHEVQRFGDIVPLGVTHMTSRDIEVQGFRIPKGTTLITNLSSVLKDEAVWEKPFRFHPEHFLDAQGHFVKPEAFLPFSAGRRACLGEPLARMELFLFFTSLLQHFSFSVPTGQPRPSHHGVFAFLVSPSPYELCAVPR
Sequence of Glucose-6-phosphate 1-dehydrogenase (P11413 whole entry): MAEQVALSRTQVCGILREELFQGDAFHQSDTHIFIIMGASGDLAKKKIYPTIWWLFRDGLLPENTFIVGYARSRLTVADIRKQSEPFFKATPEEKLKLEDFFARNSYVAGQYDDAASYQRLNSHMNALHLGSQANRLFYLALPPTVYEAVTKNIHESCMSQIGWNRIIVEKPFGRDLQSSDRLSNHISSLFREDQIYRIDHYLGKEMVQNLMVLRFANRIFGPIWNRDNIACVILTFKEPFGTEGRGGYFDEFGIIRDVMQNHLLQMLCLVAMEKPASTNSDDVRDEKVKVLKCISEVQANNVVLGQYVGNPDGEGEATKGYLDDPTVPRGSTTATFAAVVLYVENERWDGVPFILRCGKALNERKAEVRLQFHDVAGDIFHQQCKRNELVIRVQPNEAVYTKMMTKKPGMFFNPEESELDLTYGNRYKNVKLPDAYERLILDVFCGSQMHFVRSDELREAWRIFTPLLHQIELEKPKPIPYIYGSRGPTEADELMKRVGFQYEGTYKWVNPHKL
Sequence of Induced myeloid leukemia cell differentiation protein Mcl-1 (Q07820 whole entry): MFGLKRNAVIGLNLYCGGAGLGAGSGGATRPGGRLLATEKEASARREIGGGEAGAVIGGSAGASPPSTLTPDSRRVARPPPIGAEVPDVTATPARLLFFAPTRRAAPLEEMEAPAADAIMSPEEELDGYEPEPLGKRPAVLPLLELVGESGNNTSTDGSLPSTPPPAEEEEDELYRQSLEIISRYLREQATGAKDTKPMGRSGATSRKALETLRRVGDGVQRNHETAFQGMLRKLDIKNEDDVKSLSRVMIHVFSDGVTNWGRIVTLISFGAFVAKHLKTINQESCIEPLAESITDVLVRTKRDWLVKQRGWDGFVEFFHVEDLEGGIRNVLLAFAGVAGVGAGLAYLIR

Take `O=C1C=C(O)CC(c2ccco2)C1` (configuration not stated): the IC50 was 14 µM (active) in test [1] and 37.5 µM (active) in [2].
For `Cc1ccc(N2C(=O)C(Cl)=C(N3CCN(c4ccccc4)CC3)C2=O)cc1`, the IC50 in test [3] is > 50 µM (inconclusive).
`O=C(CSc1n[nH]c(-c2ccncc2)n1)Nc1ccc(Cl)c(Cl)c1`: the IC50 in test [1] is 8.81 µM (active); in test [2], 9.18 µM (active).
Take `CCCCOC(=O)Nc1ccc(N(C)C)cc1`: the IC50 was 5.43 µM (active) on Large T antigen and 0.473 µM (not active) in [4].
On to `Cc1cc(NS(=O)(=O)c2ccc(Nc3nc(-c4ccc(O)cc4)cs3)cc2)no1`, for which the IC50 on Large T antigen is > 100 µM (active); in [6], 30.8 µM (active). In [5], the AC50 is 0.108 µM (active).
Take `CC(=O)Nc1nnc(SCC(=O)NCC2CCCO2)s1` (configuration not stated): the IC50 in test [1] is 38.6 µM (active); in test [2], 22.5 µM (active).
Turning to `CCOC(=O)COc1ncn(-c2ccccc2)n1`, the half-inhibitory concentration (IC50) at Leucine aminopeptidase was 13.9 µM (active).
As to `COc1ccc(N2CCN(C3=C(Cl)C(=O)N(c4ccc(Cl)nc4)C3=O)CC2)cc1`, the IC50 in [3] was > 50 µM (inconclusive).
On to `O=C(COc1ccccc1F)OCC(=O)c1ccc([N+](=O)[O-])cc1`, for which the IC50 in test [7] was > 80 µM (inactive).
`Cc1cc(C)n2nc(C(=O)N/N=C/c3c4ccccc4cc4ccccc34)nc2n1`: the EC50 in [8] is > 260 µM (inactive). The IC50 in the test on H9c2 was > 79 µM (inactive).
On to `S=c1[nH]c(-c2ccccc2)nn1-c1ccccc1`, for which, at Leucine aminopeptidase, the half-inhibitory concentration (IC50) is 11.5 µM (active).
For the compound `O=C(O)c1cccc(Cn2c(Cl)c(/C=N/NC(=O)c3ccccc3Cl)sc2=O)c1`, the IC50 on Leucine aminopeptidase was 34.1 µM (active).
`COc1ccccc1S(=O)(=O)N(C)C[C@H]1OCc2ccccc2-c2c(n(C)c3ccccc23)C(=O)N([C@@H](C)CO)C[C@@H]1C`: the AC50 in [9] is 2.03 µM (active); in [10], 2.1 µM (active); in [11], 1.09 µM (active); in test [12] it was 1.02 µM (active).
For `CCCC#Cc1ccc2c(c1)O[C@H](CN(C)C(=O)Nc1ccc(OC)cc1)[C@H](C)CN([C@H](C)CO)S2(=O)=O` the same measures were 1.37 µM (active), 1.94 µM (active), 1.82 µM (active) and 1.45 µM (active).
Regarding `CC(C)NC(=O)N1[C@@H](CO)[C@@H](c2ccccc2)C12CN(Cc1ccc(F)cc1)C2`, the AC50 in [9] was 4 µM (active); in [10], 3.25 µM (active); in test [11], 1.95 µM (active); in test [12], 2.17 µM (active).
Turning to `O=C(C1CCCC1)N1CC(=O)N2[C@H](CO)[C@H](c3ccc(-c4cccnc4)cc3)[C@H]2C1`, the AC50 in test [9] is 2.33 µM (active); in test [10], 1.47 µM (active); in test [11] it was 1.11 µM (active); in test [12], 1.85 µM (active).
For `C[C@@H]1CN([C@@H](C)CO)C(=O)c2cccc(NC(=O)c3nc4ccccc4s3)c2O[C@H]1CN(C)C(=O)Nc1ccc2c(c1)OCO2` the same measures were 0.985 µM (active), 2.35 µM (active), 1.37 µM (active) and 1.18 µM (active).
`CCOc1ccc(Cl)cc1S(=O)(=O)Nc1cccnc1`: the IC50 in [3] is on record as > 100 µM (not active).
Take `O=C(O)C1=CC(=C(c2ccc(O)c(C(=O)O)c2)c2ccc(O)c(C(=O)O)c2)C=CC1=O` [AURINTRICARBOXYLIC ACID]: on Large T antigen, the IC50 was 1.93 µM (active). For the same compound, at Cytochrome P450 2D6, the AC50 was 39.8 µM (inconclusive).
With `C[C@H](CCC(=O)O)[C@H]1CC[C@H]2[C@@H]3CC[C@@H]4C[C@H](O)CC[C@]4(C)[C@H]3CC[C@]12C` [LITHOCHOLIC ACID], the IC50 on Large T antigen is 26.1 µM (active); in test [13], 4.82 µM (active).
In the case of `CC[N+](CC)(CC)CCOc1ccc(/C=C/c2ccccc2)cc1` [STILONIUM IODIDE], the IC50 in test [1] was 2.33 µM (active); in test [2], 2.57 µM (active); in test [13], 20.2 µM (active).
